The numbers were not newly measured in US20240197726A1, “NOVEL TETRAHYDROISOQUINOLINE ALKALOID COMPOUND CONTAINING MACROCYCLE” (THE UNIVERSITY OF TOKYO, priority 2021, published 2024), which cites them from elsewhere.

Data set [1] has as its system MCF-7 breast cancer cells. Particulars: MCF-7 breast cancer cells; comparative value based on the literature; read-out: antitumor activity GI50 value: 50% growth inhibitory concentration; cited from earlier work.
Data set [2] has as its system MDA-MB-231 breast cancer cells. Particulars: MDA-MB-231 breast cancer cells; comparative value based on the literature; read-out: antitumor activity GI50 value: 50% growth inhibitory concentration; cited from earlier work.
Data set [3] has as its system HT-29 colorectal cancer cells. Particulars: HT-29 colorectal cancer cells; comparative value based on the literature; read-out: antitumor activity GI50 value: 50% growth inhibitory concentration; cited from earlier work.
Data set [4] deals with HCT-116 colorectal cancer cells. Particulars: HCT-116 colorectal cancer cells; comparative value based on the literature; read-out: antitumor activity GI50 value: 50% growth inhibitory concentration; cited from earlier work.
The test system of data set [5] is NCI-H23 lung cancer cells. The following applies: NCl-H23 lung cancer cells; comparative value based on the literature; read-out: antitumor activity GI50 value: 50% growth inhibitory concentration; cited from earlier work.
Data set [6] concerns NCI-H460 lung cancer cells. The following applies: NCl--H460 lung cancer cells; comparative value based on the literature; read-out: antitumor activity GI50 value: 50% growth inhibitory concentration; cited from earlier work.
A further data set has as its system A549 lung cancer cells. Particulars: A549 lung cancer cells; comparative value based on the literature; read-out: antitumor activity GI50 value: 50% growth inhibitory concentration; cited from earlier work.

Consider `COc1c(C)cc2c(c1C)[C@H]1N(C)[C@@](C)(C2)C(O)N2C1(C)[C@@H]1CCC3(NCCc4cc(C)c(C)cc43)C(=O)OC[C@@]2(C)c2c3c(c(C)c(C)c21)OCO3` (some centres unmarked), for which the GI50 in data set [1] is 2.6 nM; in data set [2], 3.9 nM; in data set [3], 9.8 nM; in data set [4] it was 4.9 nM; in data set [5], 2.1 nM; in data set [6] it was 1.8 nM. In addition, the GI50 in the data set on A549 lung cancer cells was 10.4 nM.
With `COc1c(C)cc2c(c1C)[C@H]1N(C)[C@@](C)(C2)C(C)N2C1(C)[C@@H]1CCC3(NCCc4cc(C)c(C)cc43)C(=O)OC[C@@]2(C)c2c3c(c(C)c(C)c21)OCO3` (some centres unmarked), the GI50 was 2.6 nM in data set [1]; 3.9 nM in data set [2]; 9.8 nM in data set [3]; 4.9 nM in data set [4]; 2.1 nM in data set [5]; 1.8 nM in data set [6]. Also, the GI50 in the data set with A549 lung cancer cells was 10.4 nM.
